What was measured:
[1] = Chemical stability of the compound assessed as parent compound remaining measured at 7 hrs; type: physicochemical; conditions: read-out: Stability
[2] = Drug distribution in Sprague-Dawley rat spleen at 10 mg/kg, po measured at 6 hrs by LC-MS/MS analysis; type: ADME, organism-based; conditions: read-out: Ct
[3] = Drug distribution in Sprague-Dawley rat plasma at 10 mg/kg, po measured at 24 hrs by LC-MS/MS analysis; type: ADME, organism-based
[4] = system: VCaP; test: Antitumor activity against human VCaP cells xenografted in SCID mouse assessed as tumor regression at 1 mg/kg, po administered 3 times a week for 4 weeks; type: functional
[5] = system: CWR22R; test: Antitumor activity against human 22Rv1 cells xenografted in SCID mouse assessed as tumor growth inhibition at 3 mg/kg, po administered 3 times a week for 3 weeks; type: functional; conditions: 22Rv1, 504 h, read-out: TGI
[6] = Toxicity in immune-competent Sprague-Dawley rat assessed as change in neutrophil at 1 to 10 mg/kg, po administered twice a week for 5 weeks; type: organism-based; conditions: in vivo, 840 h, dose 1-10 mg/kg
[7] = Half life in ICR mouse at 1 mg/kg, iv measured upto 24 hrs by LC/MS-MS analysis; type: ADME, organism-based; conditions: in vivo
[8] = target: Cytochrome P450 2D6 (Homo sapiens, UniProt P10635); test: Inhibition of CYP2D6 (unknown origin) preincubated with compound for 5 mins followed by NADPH addition and measured after 20 mins by LC-MS/MS analysis; type: ADME
[9] = system: CWR22R; test: Antitumor activity against human 22Rv1 cells xenografted in SCID mouse assessed as tumor growth inhibition at 1 mg/kg, po administered 5 times a week for 3 weeks; type: functional; conditions: 22Rv1, 504 h, read-out: TGI
[10] = Drug distribution in Sprague-Dawley rat plasma at 3 mg/kg, po measured at 1 hr by LC-MS/MS analysis; type: ADME, organism-based
[11] = Half life in Sprague-Dawley rat at 1 mg/kg, iv measured upto 24 hrs by LC/MS-MS analysis; type: ADME, organism-based; conditions: in vivo
[12] = Toxicity in female BALB/c mouse assessed as effect on body weight loss at 3 to 10 mg/kg, po administered twice a week for 5 to 6 weeks; type: organism-based; conditions: in vivo, dose lower 3 mg/kg, time lower 5 weeks, dose upper 10 mg/kg, time upper 6 weeks
[13] = Drug distribution in SCID mouse plasma at 3 mg/kg, po measured at 6 hrs by LC-MS/MS analysis; type: ADME, organism-based
[14] = Metabolic stability in rat liver microsome assessed as half life measured upto 60 mins in presence of NADPH by LC-MS/MS analysis; type: ADME; conditions: liver microsomes
[15] = Drug distribution in SCID mouse spleen at 0.3 mg/kg, po measured at 6 hrs by LC-MS/MS analysis; type: ADME, organism-based; conditions: read-out: Ct
[16] = Toxicity in immune-competent Sprague-Dawley rat assessed as change in platelet count at 1 to 10 mg/kg, po administered twice a week for 5 weeks; type: organism-based; conditions: in vivo, 840 h, dose 1-10 mg/kg
[17] = Plasma protein binding in human by LC-MS analysis; type: ADME, cell-free; conditions: read-out: PPB (converted)
[18] = Clearance in Sprague-Dawley rat at 1 mg/kg, iv measured upto 24 hrs by LC/MS-MS analysis; type: ADME, organism-based; conditions: in vivo
[19] = Drug distribution in Sprague-Dawley rat kidney at 3 mg/kg, po measured at 6 hrs by LC-MS/MS analysis; type: ADME, organism-based; conditions: read-out: Ct
[20] = Metabolic stability in human plasma assessed as half life measured upto 120 mins by LC-MS/MS analysis; type: ADME, cell-free
[21] = Oral bioavailability in ICR mouse at 3 mg/kg measured upto 24 hrs by LC/MS-MS analysis; type: ADME, organism-based; conditions: in vivo
[22] = Drug distribution in SCID mouse spleen at 3 mg/kg, po measured at 1 hr by LC-MS/MS analysis; type: ADME, organism-based; conditions: read-out: Ct
[23] = Toxicity in immune-competent Sprague-Dawley rat assessed as change in creatinine level at 1 to 10 mg/kg, po administered twice a week for 5 weeks; type: organism-based; conditions: in vivo, 840 h, dose 1-10 mg/kg
[24] = Drug distribution in Sprague-Dawley rat spleen at 3 mg/kg, po measured at 6 hrs by LC-MS/MS analysis; type: ADME, organism-based; conditions: read-out: Ct
[25] = Drug distribution in SCID mouse spleen at 1 mg/kg, po measured at 1 hr by LC-MS/MS analysis; type: ADME, organism-based; conditions: read-out: Ct
[26] = Drug distribution in SCID mouse tumor at 1 mg/kg, po measured at 6 hrs by LC-MS/MS analysis; type: ADME, organism-based, Neoplasm; conditions: read-out: Ct
[27] = Drug distribution in SCID mouse plasma at 0.3 mg/kg, po measured at 1 hr by LC-MS/MS analysis; type: ADME, organism-based
[28] = Drug distribution in SCID mouse tumor at 0.3 mg/kg, po measured at 1 hr by LC-MS/MS analysis; type: ADME, organism-based, Neoplasm; conditions: read-out: Ct
[29] = system: VCaP; test: Antiproliferative activity against human VCaP cells assessed as cell growth inhibition incubated for 4 days by celtiter-glo luminescent assay; conditions: 96 h
[30] = Metabolic stability in monkey plasma assessed as half life measured upto 120 mins by LC-MS/MS analysis; type: ADME, cell-free, Macaca mulatta; conditions: rhesus monkey
[31] = system: VCaP; test: Antitumor activity against human VCaP cells xenografted in SCID mouse assessed as tumor growth inhibition at 0.3 mg/kg, po administered daily 5 times a week for 4 weeks; type: functional; conditions: 672 h, read-out: TGI
[32] = target: Cytochrome P450 2C19 (Homo sapiens, UniProt P33261); test: Inhibition of CYP2C19 (unknown origin) preincubated with compound for 5 mins followed by NADPH addition and measured after 45 mins by LC-MS/MS analysis; type: ADME
[33] = Drug distribution in Sprague-Dawley rat liver at 3 mg/kg, po measured at 6 hrs by LC-MS/MS analysis; type: ADME, organism-based; conditions: read-out: Ct
[34] = Metabolic stability in dog liver microsome assessed as half life measured upto 60 mins in presence of NADPH by LC-MS/MS analysis; type: ADME, Canis lupus familiaris; conditions: liver microsomes
[35] = Drug distribution in Sprague-Dawley rat spleen at 3 mg/kg, po measured at 1 hr by LC-MS/MS analysis; type: ADME, organism-based; conditions: read-out: Ct
[36] = Drug distribution in Sprague-Dawley rat liver at 10 mg/kg, po measured at 6 hrs by LC-MS/MS analysis; type: ADME, organism-based; conditions: read-out: Ct
[37] = AUC in Sprague-Dawley rat at 3 mg/kg, po measured upto 24 hrs by LC/MS-MS analysis; type: ADME, organism-based; conditions: in vivo
[38] = Cmax in ICR mouse at 3 mg/kg, po measured upto 24 hrs by LC/MS-MS analysis; type: ADME, organism-based; conditions: in vivo
[39] = Drug distribution in SCID mouse tumor at 3 mg/kg, po measured at 24 hrs by LC-MS/MS analysis; type: ADME, organism-based, Neoplasm; conditions: read-out: Ct

Cytochrome P450 2C19, sequence (P33261 whole entry): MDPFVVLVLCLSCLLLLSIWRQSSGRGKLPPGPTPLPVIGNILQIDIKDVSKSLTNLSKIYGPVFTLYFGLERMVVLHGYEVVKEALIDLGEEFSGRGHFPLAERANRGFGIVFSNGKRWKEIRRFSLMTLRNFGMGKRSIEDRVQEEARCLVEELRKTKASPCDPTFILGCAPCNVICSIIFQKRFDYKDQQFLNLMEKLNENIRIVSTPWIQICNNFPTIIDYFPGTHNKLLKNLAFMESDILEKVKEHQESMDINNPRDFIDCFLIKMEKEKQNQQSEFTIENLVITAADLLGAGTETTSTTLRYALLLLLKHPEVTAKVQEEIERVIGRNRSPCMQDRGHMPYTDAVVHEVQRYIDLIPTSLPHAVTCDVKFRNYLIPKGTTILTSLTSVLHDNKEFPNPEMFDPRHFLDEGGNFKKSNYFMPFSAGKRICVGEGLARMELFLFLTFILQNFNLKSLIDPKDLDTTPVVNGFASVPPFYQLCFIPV
Cytochrome P450 2D6, sequence (P10635 whole entry): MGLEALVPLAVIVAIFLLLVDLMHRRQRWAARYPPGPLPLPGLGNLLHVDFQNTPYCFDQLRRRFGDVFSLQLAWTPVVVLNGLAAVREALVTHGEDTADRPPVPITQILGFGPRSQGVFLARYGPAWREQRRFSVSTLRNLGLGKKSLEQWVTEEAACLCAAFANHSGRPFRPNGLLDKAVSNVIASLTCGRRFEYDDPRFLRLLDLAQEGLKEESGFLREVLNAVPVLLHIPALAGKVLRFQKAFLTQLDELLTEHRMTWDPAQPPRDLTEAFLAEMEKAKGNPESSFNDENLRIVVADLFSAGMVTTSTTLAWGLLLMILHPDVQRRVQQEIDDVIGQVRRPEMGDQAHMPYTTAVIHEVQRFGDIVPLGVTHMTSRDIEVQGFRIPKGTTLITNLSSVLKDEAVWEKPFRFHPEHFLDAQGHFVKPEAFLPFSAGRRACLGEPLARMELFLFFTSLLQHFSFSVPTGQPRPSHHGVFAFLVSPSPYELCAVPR

remaining at 7 h [1]: < 10%
concentration at 6 h [2]: 406 ng/g
concentration at 24 h [3]: 1.3 ng/mL
t1/2 [7]: 3.4 h
IC50 [8]: > 10 µM
concentration at 1 h [10]: 109 ng/mL
half-life [11]: 1.9 h
concentration at 6 h [13]: 763 ng/mL
half-life [14]: 1.08 h
concentration at 6 h [15]: 27.4 ng/mL
fraction unbound [17]: 0.009
clearance [18]: 34.6 mL/min/kg
concentration at 6 h [19]: 59.2 ng/g
half-life [20]: 1.18 h
bioavailability [21]: 60%
concentration at 1 h [22]: 937 ng/mL
concentration at 6 h [24]: 112 ng/g
concentration at 1 h [25]: 146 ng/mL
concentration at 6 h [26]: 64.3 ng/g
concentration at 1 h [27]: 35.2 ng/mL
concentration at 1 h [28]: 27.8 ng/g
IC50 [29]: 0.0046 µM
half-life [30]: > 2 h
IC50 [32]: > 10 µM
concentration at 6 h [33]: 148 ng/g
half-life [34]: 0.817 h
concentration at 1 h [35]: 832 ng/g
concentration at 6 h [36]: 541 ng/g
AUC at 24 h [37]: 937 ng·h/mL
Cmax [38]: 725 ng/mL
concentration at 24 h [39]: 12 ng/mL
Structure (SMILES): CC(=O)N1CCc2c(c(N3CCCc4cc(-c5cnn(C)c5)c(C(F)F)cc43)nn2[C@H]2CC[C@H](CN3Cc4cc5c(cc4C3)C(=O)N(C3CCC(=O)NC3=O)C5=O)CC2)C1 (some centres undefined)
Activity [4]: 31%
inhibition in vivo at 3 mg/kg [5]: 83%
Activity [6]: Non-Toxic
inhibition in vivo at 1 mg/kg [9]: 75%
Activity [12]: Non-Toxic
Activity [16]: Non-Toxic
Activity [23]: Non-Toxic
inhibition in vivo at 0.3 mg/kg [31]: 84%

— ChEMBL document CHEMBL5543112, “Discovery of CBPD-268 as an Exceptionally Potent and Orally Efficacious CBP/p300 PROTAC Degrader Capable of Achieving Tumor Regression” (J Med Chem, 2024)
